Reference: patent US11243205B2, “Method of diagnosis of breast cancer” (LA TROBE UNIVERSITY, priority 2015, dated 2022)

Columns and labels:
[1] = system: PD-L1; assay: FACS analysis for PD-L1 cell surface expression after interferon treatment; format: cell-based; settings: IFNα 1000 IU/ml, 48 hours, **p<0.01
Description: A loss of IRF9 causes PD-L1 expression to be increased after IFNα stimulation. FACS analysis for PD-L1 cell surface expression using PE tagged anti-PD-L1, MIH5 (1:50). Cells were treated with IFNα (1000 IU/ml) or IFNγ (10 ng/ml) for 48 hours prior to FACS. Data is represented as normalised mean fluorescence intensity (MFI). Error bars represent SEM, n=3. Statistical significance values equal: **p<0.01.

[2] = system: 4T1.2-Luc2; assay: neo-adjuvant poly(I:C) therapy, primary tumour growth and survival; format: in vivo, Balb/c mice
Description: Female 8-week-old Balb/c mice were administered poly(I:C) (25 μg, I.V., thrice weekly) and/or doxorubicin (4 mg/kg, twice weekly) beginning 2 days post tumour cell inoculation (100,000 4T1.2-Luc2 IMFP). Differences in primary tumour growth were detectable 6 days after tumour cell inoculation using bioluminescent imaging (of four mice representative of the larger cohort) (A). Therapy was ceased and primary tumours were surgically removed and weighed 12 days post tumour cell injection (B). n=10 mice per group, error bars represent the 95% CI, *p<0.05, **p<0.01, ***p<0.001 using Student's t-tests.
Mice used in FIG. 2 continued to undergo weekly bioluminescent imaging to visualise the kinetics of metastatic spread. (A) Images taken 19 and 23 days post tumour cell inoculation are of the same four mice in identical order and representative of the larger cohort. (B) Mice were individually sacrificed at first signs of metastatic distress and dates recorded to generate Kaplan-Meier survival estimates. […]
Tumour-bearing mice are treated with poly(I:C), a stable derivative of poly(I:C):poly ICLC that is currently in clinical trials (Hiltonol™, Oncovir) or recombinant IFNα1 in early and late treatment settings and the impact of such treatments on immune activation and function, primary tumour growth and metastasis is measured. […]

[3] = system: 4T1.2-luc2 cells; assay: poly(I:C) treatment of mice bearing 4T1.2-luc2 mammary fat pad tumours, metastasis by bioluminescence and QPCR; format: in vivo, balb/c mice; settings: 25 ug poly(I:C) 3x weekly IV from day 4; primary tumour resected at 0.4 g; bioluminescence and QPCR of luciferase vs vimentin; *p<0.05, **p<0.01
Description: From day 4, mice were treated with 25 ug poly(I:C) or control 3× weekly IV. After primary tumour resection at 0.4 g, mice were monitored for metastasis by bioluminescence (A) and by QPCR analysis of luciferase expression compared to vimentin at end point (B). *p<0.05, **p<0.01.
Expression of Irf9 is knocked out in balb/c (66c14, 4T1) and C57 B1/6 (EO771, PyMT) mouse cell lines and the impact on tumour cell proliferation and orthotopic tumour growth and metastasis in vivo, is required. Associated changes in tumour infiltating and circulating immune cells, impact on tumour cell susceptibility to immune effector cells in vitro and the impact of NK cell specific loss of IFN signalling is measured. • a) Using TALEN technology (Boch J. TALEs of genome targeting. Nature biotechnology. 2011; 29(2):135-6) an Irf9 knockout 4T1 cell line has been generated (FIG. 5). This is repeated in 66c14, EO771 and PyMT cell lines. Given that Irf7 is induced by the ISGF3 complex of STAT1/2 and Irf9, Irf9 loss will likely directly result in reduction of Irf7. Irf7 we can also be knocked out directly in these cells. • The impact of Irf9 loss is measured on cellular proliferation using the SRB assay. […] The activation and function of NK cells is measured by measuring the expression of NKG2D, DNAM-1 and IFNγ on NKp46^+ NK cells. […]

Row | Substance | PD-L1 expression in cells with loss of IRF9 [1] | survival (Kaplan-Meier) ([2]; neo-adjuvant therapy ceased day 12, mice sacrificed at first signs of metastatic distress, ***p<0.001) | primary tumour growth ([2]; poly(I:C) 25 μg I.V. thrice weekly from 2 days post inoculation, bioluminescence day 6, tumour weight day 12) | metastasis to lung and bone [3]
1 | IFNα | increased | – | – | –
2 | poly(I:C) | – | prolongs survival | reduces primary tumour growth | reduces metastasis to lung and bone
